From PubChem BioAssay (NCI)
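Assay format: 96-well plates, 48-hour exposure. GI50 is the concentration that inhibits growth by half. Definition used: TGI = concentration required for complete inhibition of growth.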

How the values were obtained:
Experiment in all cases: DTP human tumour cell line panel, 48 h; in the data active = GI50 below about 0.43 µM; inactive = the rest
786-0 renal = tested on: 786-0 renal
A498 renal = tested on: A498 renal
A549 NSCLC = tested on: A549 NSCLC
ACHN renal = tested on: ACHN renal
BT-549 breast = tested on: BT-549 breast
CCRF-CEM leukemia = tested on: CCRF-CEM leukemia
COLO 205 colon = tested on: COLO 205 colon
DU-145 prostate = tested on: DU-145 prostate
EKVX NSCLC = tested on: EKVX NSCLC
HCC-2998 colon = tested on: HCC-2998 colon
HCT-116 colon = tested on: HCT-116 colon
HCT-15 colon = tested on: HCT-15 colon
HL-60(TB) leukemia = tested on: HL-60(TB) leukemia
HOP-62 NSCLC = tested on: HOP-62 NSCLC
HOP-92 NSCLC = tested on: HOP-92 NSCLC
HS 578T breast = tested on: HS 578T breast
HT29 colon = tested on: HT29 colon
IGROV1 ovarian = tested on: IGROV1 ovarian
K-562 leukemia = tested on: K-562 leukemia
KM12 colon = tested on: KM12 colon
LOX IMVI melanoma = tested on: LOX IMVI melanoma
M14 melanoma = tested on: M14 melanoma
MALME-3M melanoma = tested on: MALME-3M melanoma
MCF7 breast = tested on: MCF7 breast
MDA-MB-231 breast = tested on: MDA-MB-231 breast
MDA-MB-435 = tested on: MDA-MB-435
MOLT-4 leukemia = tested on: MOLT-4 leukemia
NCI-H226 lung = tested on: NCI-H226 lung
NCI-H23 lung = tested on: NCI-H23 lung
NCI-H460 lung = tested on: NCI-H460 lung
NCI-H522 lung = tested on: NCI-H522 lung
NCI/ADR-RES ovarian = tested on: NCI/ADR-RES ovarian
OVCAR-3 ovarian = tested on: OVCAR-3 ovarian
OVCAR-4 ovarian = tested on: OVCAR-4 ovarian
OVCAR-5 ovarian = tested on: OVCAR-5 ovarian
OVCAR-8 ovarian = tested on: OVCAR-8 ovarian
PC-3 prostate = tested on: PC-3 prostate
RPMI-8226 leukemia = tested on: RPMI-8226 leukemia
RXF 393 renal = tested on: RXF 393 renal
SF-268 CNS = tested on: SF-268 CNS
SF-295 CNS = tested on: SF-295 CNS
SF-539 CNS = tested on: SF-539 CNS
SK-MEL-2 melanoma = tested on: SK-MEL-2 melanoma
SK-MEL-28 melanoma = tested on: SK-MEL-28 melanoma
SK-MEL-5 melanoma = tested on: SK-MEL-5 melanoma
SK-OV-3 ovarian = tested on: SK-OV-3 ovarian
SN12C renal = tested on: SN12C renal
SNB-19 CNS = tested on: SNB-19 CNS
SNB-75 CNS = tested on: SNB-75 CNS
SR leukemia = tested on: SR leukemia
SW-620 colon = tested on: SW-620 colon
T-47D breast = tested on: T-47D breast
TK-10 renal = tested on: TK-10 renal
U251 CNS = tested on: U251 CNS
UACC-257 melanoma = tested on: UACC-257 melanoma
UACC-62 melanoma = tested on: UACC-62 melanoma
UO-31 renal = tested on: UO-31 renal
CAKI-1 renal = tested on: CAKI-1 renal

CCCCCCCCCCCCCCCC(=O)Nc1ccn([C@@H]2O[C@H](CO)[C@@H](O)[C@@H]2C#N)c(=O)n1
26.2 µM: TGI (MOLT-4 leukemia)
30.3 µM: TGI (A549 NSCLC)
inactive: GI50 (786-0 renal) 10.1 µM | GI50 (A498 renal) > 82 µM | GI50 (A549 NSCLC) 11.7 µM | GI50 (ACHN renal) 8.76 µM | GI50 (BT-549 breast) 34.9 µM | GI50 (COLO 205 colon) 17.6 µM | GI50 (DU-145 prostate) 9.03 µM | GI50 (EKVX NSCLC) > 52.7 µM | GI50 (HCC-2998 colon) 14.5 µM | GI50 (HCT-116 colon) 4.77 µM | GI50 (HCT-15 colon) 50.8 µM | GI50 (HL-60(TB) leukemia) 21.1 µM | GI50 (HOP-62 NSCLC) 20.5 µM | GI50 (HOP-92 NSCLC) 5.52 µM | GI50 (HS 578T breast) > 100 µM | GI50 (HT29 colon) 35.8 µM | GI50 (IGROV1 ovarian) 33.9 µM | GI50 (K-562 leukemia) 14.6 µM | GI50 (KM12 colon) 33.7 µM | GI50 (LOX IMVI melanoma) 10.2 µM | GI50 (M14 melanoma) 11.8 µM | GI50 (MALME-3M melanoma) 17.3 µM | GI50 (MCF7 breast) 3.29 µM | GI50 (MDA-MB-231 breast) 25.9 µM | GI50 (MDA-MB-435) 39.5 µM | GI50 (NCI-H226 lung) 30.7 µM | GI50 (NCI-H23 lung) 12 µM | GI50 (NCI-H460 lung) 2.38 µM | GI50 (NCI-H522 lung) 13.1 µM | GI50 (NCI/ADR-RES ovarian) 18.4 µM | GI50 (OVCAR-3 ovarian) > 100 µM | GI50 (OVCAR-4 ovarian) 36.4 µM | GI50 (OVCAR-5 ovarian) 51.6 µM | GI50 (OVCAR-8 ovarian) 15.4 µM | GI50 (PC-3 prostate) 35.9 µM | GI50 (RPMI-8226 leukemia) 49.8 µM | GI50 (RXF 393 renal) > 77.9 µM | GI50 (SF-268 CNS) 30.4 µM | GI50 (SF-295 CNS) 21.5 µM | GI50 (SF-539 CNS) > 100 µM | GI50 (SK-MEL-2 melanoma) 42.3 µM | GI50 (SK-MEL-28 melanoma) 33.1 µM | GI50 (SK-MEL-5 melanoma) 15.2 µM | GI50 (SK-OV-3 ovarian) 45.6 µM | GI50 (SN12C renal) 29.7 µM | GI50 (SNB-19 CNS) 6.02 µM | GI50 (SNB-75 CNS) > 58.6 µM | GI50 (SR leukemia) 8.01 µM | GI50 (SW-620 colon) 26.7 µM | GI50 (T-47D breast) 33.2 µM | GI50 (TK-10 renal) > 100 µM | GI50 (U251 CNS) 20.8 µM | GI50 (UACC-257 melanoma) 46.3 µM | GI50 (UACC-62 melanoma) 17.2 µM | GI50 (UO-31 renal) 14.5 µM
60.4 µM: TGI (MALME-3M melanoma)
98.1 µM: TGI (SR leukemia)
33.3 µM: TGI (NCI-H522 lung)
28.8 µM: TGI (SK-MEL-5 melanoma)
> 96.4 µM: TGI (MDA-MB-231 breast)
37.9 µM: TGI (LOX IMVI melanoma)
> 88.7 µM: TGI (T-47D breast)
> 84.5 µM: TGI (NCI-H23 lung)
> 83.6 µM: TGI (M14 melanoma)
> 52.4 µM: TGI (K-562 leukemia)
> 80.6 µM: TGI (HCT-116 colon)
30 µM: TGI (MCF7 breast)
24.5 µM: TGI (NCI-H460 lung)
> 100 µM: TGI (786-0 renal) | TGI (A498 renal) | TGI (ACHN renal) | TGI (BT-549 breast) | TGI (CCRF-CEM leukemia) | TGI (COLO 205 colon) | TGI (DU-145 prostate) | TGI (EKVX NSCLC) | TGI (HCC-2998 colon) | TGI (HCT-15 colon) | TGI (HL-60(TB) leukemia) | TGI (HOP-62 NSCLC) | TGI (HOP-92 NSCLC) | TGI (HS 578T breast) | TGI (HT29 colon) | TGI (IGROV1 ovarian) | TGI (KM12 colon) | TGI (MDA-MB-435) | TGI (NCI-H226 lung) | TGI (NCI/ADR-RES ovarian) | TGI (OVCAR-3 ovarian) | TGI (OVCAR-4 ovarian) | TGI (OVCAR-5 ovarian) | TGI (OVCAR-8 ovarian) | TGI (PC-3 prostate) | TGI (RPMI-8226 leukemia) | TGI (RXF 393 renal) | TGI (SF-268 CNS) | TGI (SF-295 CNS) | TGI (SF-539 CNS) | TGI (SK-MEL-2 melanoma) | TGI (SK-MEL-28 melanoma) | TGI (SK-OV-3 ovarian) | TGI (SN12C renal) | TGI (SNB-19 CNS) | TGI (SNB-75 CNS) | TGI (SW-620 colon) | TGI (TK-10 renal) | TGI (U251 CNS) | TGI (UACC-257 melanoma) | TGI (UACC-62 melanoma) | TGI (UO-31 renal)

COc1ccc2c(c1OC)OC[C@@H](C1=CC(=O)C=C(O)C1=O)C2
8.9 µM: TGI (NCI-H522 lung)
26 µM: TGI (BT-549 breast)
19.1 µM: TGI (RXF 393 renal)
31 µM: TGI (HCT-15 colon)
30.7 µM: TGI (SF-295 CNS)
60.1 µM: TGI (HS 578T breast)
26.2 µM: TGI (SW-620 colon)
46.7 µM: TGI (NCI-H226 lung)
29 µM: TGI (SK-MEL-2 melanoma)
43.3 µM: TGI (COLO 205 colon)
55.8 µM: TGI (HT29 colon)
16.9 µM: TGI (786-0 renal)
3.81 µM: TGI (CCRF-CEM leukemia)
79.1 µM: TGI (NCI/ADR-RES ovarian)
11.3 µM: TGI (ACHN renal)
18.3 µM: TGI (EKVX NSCLC)
5.31 µM: TGI (MOLT-4 leukemia)
40 µM: TGI (OVCAR-5 ovarian)
25.2 µM: TGI (IGROV1 ovarian)
69.3 µM: TGI (OVCAR-8 ovarian)
25.9 µM: TGI (UO-31 renal)
1.88 µM: TGI (HL-60(TB) leukemia)
10.4 µM: TGI (MDA-MB-231 breast)
20.3 µM: TGI (T-47D breast)
26.3 µM: TGI (OVCAR-3 ovarian)
35.8 µM: TGI (A549 NSCLC)
27 µM: TGI (MCF7 breast) | TGI (SK-MEL-5 melanoma)
23.9 µM: TGI (MDA-MB-435)
24.7 µM: TGI (MALME-3M melanoma)
26.1 µM: TGI (UACC-257 melanoma)
32.1 µM: TGI (A498 renal)
33.8 µM: TGI (NCI-H23 lung)
23.6 µM: TGI (SNB-75 CNS)
27.4 µM: TGI (NCI-H460 lung)
34.7 µM: TGI (SNB-19 CNS)
19.2 µM: TGI (SR leukemia)
32.3 µM: TGI (HCC-2998 colon)
13.1 µM: TGI (LOX IMVI melanoma)
4.12 µM: TGI (HOP-92 NSCLC)
24.1 µM: TGI (OVCAR-4 ovarian)
38.1 µM: TGI (SF-268 CNS)
29.3 µM: TGI (DU-145 prostate)
5.18 µM: TGI (RPMI-8226 leukemia)
27.3 µM: TGI (TK-10 renal)
17.4 µM: TGI (HCT-116 colon)
> 58.5 µM: TGI (SK-MEL-28 melanoma)
11.8 µM: TGI (K-562 leukemia)
30.3 µM: TGI (SK-OV-3 ovarian)
37 µM: TGI (SN12C renal)
24.5 µM: TGI (U251 CNS)
27.5 µM: TGI (KM12 colon)
25.1 µM: TGI (UACC-62 melanoma)
26.8 µM: TGI (M14 melanoma) | TGI (PC-3 prostate) | TGI (SF-539 CNS)
64.5 µM: TGI (HOP-62 NSCLC)

CC(C)(C)OC(=O)N(CCCN)CCCCN
> 100 µM: TGI (786-0 renal) | TGI (A498 renal) | TGI (A549 NSCLC) | TGI (ACHN renal) | TGI (BT-549 breast) | TGI (CAKI-1 renal) | TGI (CCRF-CEM leukemia) | TGI (COLO 205 colon) | TGI (DU-145 prostate) | TGI (EKVX NSCLC) | TGI (HCC-2998 colon) | TGI (HCT-116 colon) | TGI (HCT-15 colon) | TGI (HL-60(TB) leukemia) | TGI (HOP-62 NSCLC) | TGI (HOP-92 NSCLC) | TGI (HS 578T breast) | TGI (HT29 colon) | TGI (IGROV1 ovarian) | TGI (K-562 leukemia) | TGI (KM12 colon) | TGI (M14 melanoma) | TGI (MCF7 breast) | TGI (MDA-MB-231 breast) | TGI (MDA-MB-435) | TGI (MOLT-4 leukemia) | TGI (NCI-H226 lung) | TGI (NCI-H23 lung) | TGI (NCI-H460 lung) | TGI (NCI-H522 lung) | TGI (NCI/ADR-RES ovarian) | TGI (OVCAR-3 ovarian) | TGI (OVCAR-4 ovarian) | TGI (OVCAR-5 ovarian) | TGI (OVCAR-8 ovarian) | TGI (PC-3 prostate) | TGI (RPMI-8226 leukemia) | TGI (RXF 393 renal) | TGI (SF-268 CNS) | TGI (SF-295 CNS) | TGI (SF-539 CNS) | TGI (SK-MEL-2 melanoma) | TGI (SK-MEL-28 melanoma) | TGI (SK-MEL-5 melanoma) | TGI (SK-OV-3 ovarian) | TGI (SN12C renal) | TGI (SNB-19 CNS) | TGI (SR leukemia) | TGI (SW-620 colon) | TGI (T-47D breast) | TGI (TK-10 renal) | TGI (U251 CNS) | TGI (UACC-257 melanoma) | TGI (UACC-62 melanoma) | TGI (UO-31 renal)
